{"source": "patent US12150933B2", "about": "“IL-8 inihibitors for use in the treatment of some urological disorders” (DOMPÉ FARMACEUTICI S.P.A., priority 2015, dated 2024)", "key": {"KC/GRO-α": {"tested_on": "KC/GRO-α", "assay": "KC/GRO-α plasma content after preventive treatment in CYP-induced cystitis model in rats", "format": "in vivo, rat", "conditions": "day 9; 20 mg/kg p.o. 12 hours before first CYP, then 7 mg/kg p.o. twice a day for 7 days", "method": "The effect of chronic preventive administration of Compd. 1 on KC/GRO-α plasma content in a CYP-induced cystitis model in conscious rats was evaluated.\nTo elicit cystitis, rats received intraperitoneal (i.p.) injections of CYP (75 mg/Kg every third day for three times). A single high dose of Compd. 1 (20 mg/kg) was orally administered 12 hours before the first CYP treatment; subsequently Compd. 1 (7 mg/kg p.o.) was administered twice a day for 7 days (from day 1 to day 7 from the first CYP administration). The oral dose of 7 mg/kg of Compd. 1 was chosen on the basis of previous evaluations. Animals blood was collected at day 7 (the same day of the last CYP treatment) at day 8 (about 24 hrs after last CYP administration) and at day 9 (about 48 hrs after last CYP administration). Each experimental group was composed of 10 animals, 10 animals treated with CYP+vehicle compound, 10 animals treated with CYP+Compd. 1, and 10 animals (sham) treated with CYP vehicle+vehicle compound.\nThe same animal was subjected to 3 blood serial samplings in order to evaluate the time-course of inflammatory mediators content. After thawing and centrifuge to remove any aggregates and lipid residues that could interfere with the reading, the samples were evaluated through quantitative analysis of KC/GRO-α."}, "[1]": {"tested_on": "CYP-induced visceral pain", "assay": "Chronic preventive treatment in CYP-induced visceral pain model in rats; comparison with Mesna", "format": "in vivo, rat", "conditions": "7 mg/kg twice daily p.o. for 7 days", "method": "The effect of chronic preventive administration of Compd. 1 in a visceral pain model induced by repeated administration of cyclophosphamide (CYP) in conscious rats was evaluated.\nThe oral dose of 7 mg/kg of Compd. 1 was chosen on the basis of previous evaluations. Compd. 1 or vehicle was orally administered to animals twice daily (according to the PK profile of the molecule) for 7 days. Mesna_or vehicle was intraperitoneally administered several times a day for 3 days (when CYP was administered).\nRepeated treatment with CYP (75 mg/kg i.p. for 3 times, every 3rd day), induced a strong decrease in withdrawal thresholds to noxious stimulus measured at the level of low abdomen and hind-paws. Nociceptive hypersensitivity was evaluated. In the control group, nociceptive thresholds of abdomen and hind-paws were not altered after the treatment with vehicle.\nBehavioral testing was performed at 4 different times: • before CYP administration (in order to acquire basal values) • after CYP administration and before treatment with the tested compound, to verify the pathology (in order to acquire pre-treatment values) • after treatment, 42 or 48 hours from the last administration of Compd. 1 or Mesna."}, "CYP-induced cystitis": {"tested_on": "CYP-induced cystitis", "assay": "Microscopic examination of urinary bladders after chronic preventive administration", "format": "in vivo, rat", "conditions": "12 hours before and twice per day from first day of CYP for 7 days", "from_the_text": "At the end of the study, the urinary bladders were opened, placed in 10% buffered formalin and stored at room temperature until completion of hystomorphological analysis (see Example 6 below).\nAt the end of the efficacy study of chronic preventive administration, the urinary bladders were opened, placed in 10% buffered formalin and stored at room temperature until hystomorphological analysis.\nTreatment with Compd. […] 1."}, "[2]": {"assay": "Pharmacokinetic profile after oral administration", "format": "in vivo"}}, "note": "“Also recorded” adds a separate entry of the source.", "data": [{"smiles": "C[C@H](C(=O)O)c1ccc(Nc2nc(C(F)(F)F)cs2)cc1", "note": "[Compd. 1, (2S)-2-(4-{[4-(trifluoromethyl)-1,3-thiazol-2-yl]amino}phenyl) propanoic acid]", "values": [{"measurement": "GRO-α/KC blood levels", "setting": "KC/GRO-α", "value": "significantly reduces GRO-α/KC blood levels at day 9"}, {"measurement": "nociceptive hypersensitivity in hind-paws plantar surface", "setting": "[1]", "value": "completely reversed the nociceptive hypersensitivity in hind-paws plantar surface"}, {"measurement": "withdrawal thresholds in the abdomen", "setting": "[1]", "value": "almost complete recovery of withdrawal thresholds in the abdomen"}, {"measurement": "inflammatory, degenerative, proliferative and hemorrhagic lesions caused by CYP", "setting": "CYP-induced cystitis", "value": "clearly reduced the inflammatory, degenerative, proliferative and hemorrhagic lesions caused by CYP"}, {"measurement": "distribution in the tissues", "setting": "[2]; in vivo", "value": "poorly distributed in the tissues"}, {"measurement": "elimination from plasma", "setting": "[2]; in vivo", "value": "gradually eliminated from plasma"}, {"measurement": "oral bioavailability", "setting": "[2]; in vivo, po", "value": "excellent oral bioavailability"}, {"measurement": "absorption", "setting": "[2]; oral route", "value": "rapid absorption; also recorded: well absorbed by the oral route"}, {"measurement": "time of maximum concentration in plasma after administration", "setting": "[2]; plasma", "value": 2, "unit": "h"}, {"measurement": "Cmax", "setting": "[2]; plasma, oral, read-out: maximum concentration (Cmax) in plasma", "value": "47400 ± 25400", "unit": "ng/mL"}]}]}
